Legend:
duck salad = test: Test B flood test duck salad; format: in vivo, Heteranthera limosa
Outline: (§1)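 Flood test on plants grown to the 2-leaf stage; treated plants kept in greenhouse twelve to sixteen days, then visually rated against controls on a 0 (no effect) to 10 (complete control) scale.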

corn = test: Test B pre/postemergence corn; format: in vivo, Zea mays
Outline: (§2)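 Response is a visual 0-to-10 score relative to untreated plants, where 0 means no effect and 10 means complete control, taken twelve to sixteen days after application. Treatments went onto soil at planting and onto foliage of 1- to 4-leaf plants, using a surfactant-containing non-phytotoxic solvent.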

smallflower flatsedge = test: Test B flood test smallflower flatsedge; format: in vivo, Cyperus difformis
Outline: as §1

wheat = test: Test B pre/postemergence wheat; format: in vivo, Triticum aestivum
Outline: as §2

purple nutsedge = test: Test B pre/postemergence purple nutsedge; format: in vivo, Cyperus rotundus
Outline: as §2

bamyardgrass = test: Test B flood test barnyardgrass; format: in vivo, Echinochloa crus-galli
Outline: as §1

bedstraw = test: Test B pre/postemergence bedstraw; format: in vivo, Galium aparine
Outline: as §2

wild oat = test: Test B pre/postemergence wild oat; format: in vivo, Avena fatua
Outline: as §2

blackgrass = test: Test B pre/postemergence blackgrass; format: in vivo, Alopecurus myosuroides
Outline: as §2

sugar beet = test: Test B pre/postemergence sugar beet; format: in vivo, Beta vulgaris
Outline: as §2

rice = test: Test B flood test rice; format: in vivo, Oryza sativa
Outline: as §1

cocklebur = test: Test B pre/postemergence cocklebur; format: in vivo, Xanthium strumarium
Outline: as §2

velvetleaf = test: Test B pre/postemergence velvetleaf; format: in vivo, Abutilon theophrasti
Outline: as §2

soybean = test: Test B pre/postemergence soybean; format: in vivo, Glycine max
Outline: as §2

surinam grass = test: Test B pre/postemergence surinam grass; format: in vivo, Brachiaria decumbens
Outline: as §2

crabgrass = test: Test B pre/postemergence crabgrass; format: in vivo, Digitaria sanguinalis
Outline: as §2

[1] = Postemergence, Rate 62 g/ha, scale 0 to 10, 0 is no effect, 10 is complete control
[2] = Rate 125 g/ha, Postemergence section (flood test species), scale 0 to 10, 0 no effect, 10 complete control
[3] = Rate 500 g/ha, Postemergence section of Table B, 0 to 10 scale (0 no effect, 10 complete control)
[4] = flood test, listed under Postemergence, Rate 250 g/ha, scale 0 to 10, 0 no effect, 10 complete control
[5] = Postemergence, Rate 250 g/ha, scale 0 to 10, 0 no effect, 10 complete control
[6] = Preemergence, Rate 31 g/ha, visual rating, scale 0 to 10 (0 no effect, 10 complete control)
[7] = Preemergence, Rate 62 g/ha, scale 0 to 10, 0 is no effect, 10 is complete control
[8] = Preemergence, Rate 125 g/ha, scale 0 to 10 (0 no effect, 10 complete control)
[9] = Preemergence, Rate 250 g/ha, scale of 0 to 10 where 0 is no effect and 10 is complete control
[10] = Rate 31 g/ha, Postemergence, scale 0 to 10
[11] = Rate 125 g/ha, Postemergence, scale 0 to 10, 0 no effect, 10 complete control

## COc1ccc(-n2c(=O)on(C(=O)N(c3ccc(F)cc3)C(C)C)c2=O)c(OC)c1 [Compound 33]
Duck salad; [1]
  Ducksalad plant response rating: 0
Duck salad; [2]
  Ducksalad plant response rating: 0
Duck salad; [3]
  Ducksalad plant response rating: 0
Duck salad; [4]
  Ducksalad plant response rating: 0
corn; [1]
  Corn plant response rating: 0
corn; [5]
  Corn plant response rating: 0
corn; [6]
  Corn plant response rating: 0
corn; [7]
  Plant response rating, Corn: 0
corn; [8]
  Plant response rating, Corn: 0
corn; [9]
  Plant response rating, Corn: 0
corn; [10]
  Corn plant response rating: 0
corn; [11]
  Corn plant response rating: 0
Smallflower flatsedge; [1]
  S. Flatsedge plant response rating: 0
Smallflower flatsedge; [2]
  S. Flatsedge plant response rating: 0
Smallflower flatsedge; [4]
  S. Flatsedge plant response rating: 2
wheat; [1]
  Wheat plant response rating: 0
wheat; [5]
  Wheat plant response rating: 0
wheat; [6]
  Wheat plant response rating: 0
wheat; [7]
  Plant response rating, Wheat: 0
wheat; [8]
  Plant response rating, Wheat: 0
wheat; [9]
  Plant response rating, Wheat: 0
wheat; [11]
  Wheat plant response rating: 0
Purple nutsedge; [1]
  Nutsedge plant response rating: 0
Purple nutsedge; [5]
  Nutsedge plant response rating: 0
Purple nutsedge; [6]
  Nutsedge plant response rating: 0
Purple nutsedge; [7]
  Plant response rating, Nutsedge: 0
Purple nutsedge; [8]
  Plant response rating, Nutsedge: 0
Purple nutsedge; [9]
  Plant response rating, Nutsedge: 0
Purple nutsedge; [10]
  Nutsedge plant response rating: 0
Purple nutsedge; [11]
  Nutsedge plant response rating: 0
bamyardgrass; [1]
  Barnyardgrass plant response rating: 0
bamyardgrass; [2]
  Barnyardgrass plant response rating: 0
bamyardgrass; [3]
  Barnyardgrass plant response rating: 6
bamyardgrass; [4]
  Barnyardgrass plant response rating: 3
bedstraw; [1]
  Bedstraw plant response rating: 0
bedstraw; [5]
  Bedstraw plant response rating: 2
bedstraw; [6]
  Bedstraw plant response rating: 0
bedstraw; [7]
  Plant response rating, Bedstraw: 0
bedstraw; [8]
  Plant response rating, Bedstraw: 0
bedstraw; [9]
  Plant response rating, Bedstraw: 0
bedstraw; [10]
  Bedstraw plant response rating: 0
bedstraw; [11]
  Bedstraw plant response rating: 1
Wild oat; [1]
  Wild oats plant response rating: 0
Wild oat; [5]
  Wild oats plant response rating: 1
Wild oat; [6]
  Wild oats plant response rating: 0
Wild oat; [8]
  Plant response rating, Wild oats: 2
Wild oat; [9]
  Plant response rating, Wild oats: 2
Wild oat; [11]
  Wild oats plant response rating: 0
blackgrass; [1]
  Blackgrass plant response rating: 4
blackgrass; [5]
  Blackgrass plant response rating: 5
blackgrass; [6]
  Blackgrass plant response rating: 0
blackgrass; [7]
  Plant response rating, Blackgrass: 0
blackgrass; [8]
  Plant response rating, Blackgrass: 0
blackgrass; [9]
  Plant response rating, Blackgrass: 0
blackgrass; [10]
  Blackgrass plant response rating: 3
blackgrass; [11]
  Blackgrass plant response rating: 5
Sugar beet; [1]
  Sugarbeets plant response rating: 0
Sugar beet; [5]
  Sugarbeets plant response rating: 6
Sugar beet; [6]
  Sugarbeets plant response rating: 0
Sugar beet; [7]
  Plant response rating, Sugarbeets: 0
Sugar beet; [8]
  Plant response rating, Sugarbeets: 0
Sugar beet; [9]
  Plant response rating, Sugarbeets: 0
Sugar beet; [11]
  Sugarbeets plant response rating: 2
rice; [1]
  Rice plant response rating: 0
rice; [2]
  Rice plant response rating: 0
rice; [3]
  Rice plant response rating: 4
rice; [4]
  Rice plant response rating: 2
cocklebur; [1]
  Cocklebur plant response rating: 0
cocklebur; [5]
  Cocklebur plant response rating: 6
cocklebur; [6]
  Cocklebur plant response rating: 0
cocklebur; [7]
  Plant response rating, Cocklebur: 0
cocklebur; [8]
  Plant response rating, Cocklebur: 0
cocklebur; [9]
  Plant response rating, Cocklebur: 0
cocklebur; [10]
  Cocklebur plant response rating: 0
cocklebur; [11]
  Cocklebur plant response rating: 0
velvetleaf; [1]
  Velvetleaf plant response rating: 0
velvetleaf; [5]
  Velvetleaf plant response rating: 2
velvetleaf; [6]
  Velvetleaf plant response rating: 0
velvetleaf; [7]
  Plant response rating, Velvetleaf: 0
velvetleaf; [8]
  Plant response rating, Velvetleaf: 0
velvetleaf; [9]
  Plant response rating, Velvetleaf: 0
velvetleaf; [11]
  Velvetleaf plant response rating: 1
soybean; [1]
  Soybean plant response rating: 2
soybean; [5]
  Soybean plant response rating: 3
soybean; [6]
  Soybean plant response rating: 0
soybean; [7]
  Plant response rating, Soybean: 0
soybean; [8]
  Plant response rating, Soybean: 0
soybean; [9]
  Plant response rating, Soybean: 0
soybean; [11]
  Soybean plant response rating: 3
Surinam grass; [1]
  B. signalgrass plant response rating: 0
Surinam grass; [5]
  B. signalgrass plant response rating: 1
Surinam grass; [6]
  B. signalgrass plant response rating: 0
Surinam grass; [7]
  Plant response rating, B. signalgrass: 0
Surinam grass; [8]
  Plant response rating, B. signalgrass: 0
Surinam grass; [9]
  Plant response rating, B. signalgrass: 7
Surinam grass; [10]
  B. signalgrass plant response rating: 0
Surinam grass; [11]
  B. signalgrass plant response rating: 0
crabgrass; [1]
  Crabgrass plant response rating: 1
crabgrass; [5]
  Crabgrass plant response rating: 2
crabgrass; [6]
  Crabgrass plant response rating: 3
crabgrass; [7]
  Plant response rating, Crabgrass: 3
crabgrass; [8]
  Plant response rating, Crabgrass: 3
crabgrass; [9]
  Plant response rating, Crabgrass: 7
crabgrass; [10]
  Crabgrass plant response rating: 0
crabgrass; [11]
  Crabgrass plant response rating: 2

— US6737383B1, “Herbicidal oxadiazolidines” (priority 1999, dated 2004)
